Results published in US7884123B2, “Substituted thieno[2,3-c]pyrazoles, process for preparing them, compositions containing them, and use thereof” (Aventis Pharma S.A., priority 2004, dated 2011).
Where a name gives a salt, the structure may show the parent alone.

Experiments:
CDK2/cycline E = molecular target: T1, CDK2/cycline E (Homo sapiens, UniProt P24941); assay: CDK2/cyclineE Flashplate test in 96-well format; format: biochemical
T1 construct: made in house; host or cells: Sf21 insect cells (baculovirus coinfection)
Method: Purification of the CDK2/cyclineE-(His)6 Complex by IMAC (Immobilized Metal Affinity Chromatography):
Two recombinant baculoviruses bearing the human sequences coding, respectively, for CDK2 and cyclineE (the latter bearing a C-terminal hexahistidine tag) are used to coinfect Sf21 insect cells. Two to three days after the start of coinfection, the cells are harvested by centrifugation and then stored at −40° C. until the time of use. After thawing and mechanical lysis of the cells, the complex present in the lysis supernatant is purified by affinity chromatography on nickel (IMAC), and stored at −80° C.
CDK2/cyclineE Flashplate Test in 96-Well Format.
A format in streptavidin-coated 96-well plates is used to test the activity of the compounds on the kinase activity of CDK2/cycline E.
To perform this test, the biotinylated peptide substrate, a fragment of the protein pRb (biotinyl-[…]—OH) (SEQ ID NO: 1), is dissolved at a concentration of 1 mM in kinase buffer (HEPES/NaOH 50 mM, NaCl 1 mM, MgCl2 5 mM, pH 7.5) in order to constitute a stock solution stored at −20° C. in the form of 110 μL aliquots. On the day of the experiment, an aliquot of this solution is thawed and diluted in kinase buffer containing 1 mM of dithiothreitol, added to the buffer extemporaneously, in order to obtain a concentration of 14.3 μM. 70 μL of this solution are added to each well of the Flashplate in order to obtain a final substrate concentration of 10 μM during the enzymatic reaction performed in a final volume of the reaction medium of 100 μL (cf. below).
Intermediate dilutions of inhibitors (products of the invention) at various concentrations are prepared in DMSO from stock solutions at 10 mM in separate tubes. […]
When the incubation is complete, the plate is washed three times with 300 μL per well of PBS (phosphate-buffered saline, pH=7.4, without calcium or magnesium, reference 10010-015, Gibco BRL). The incorporation of ^33P to the peptide is quantified by scintillation counting with a Packard Topcount.NXT machine. […]

Aurora2 = molecular target: T2, Aurora2 (Homo sapiens, UniProt O14965); assay: Aurora2 kinase radioactivity scintillation test using nickel chelate; format: biochemical
T2 construct: A complete recombinant Aurora2 enzyme, the N-terminal of which was labeled with histidine, was expressed in E. coli; His tag (N); made in house; host or cells: E. coli
T2 sequence (O14965 1-403): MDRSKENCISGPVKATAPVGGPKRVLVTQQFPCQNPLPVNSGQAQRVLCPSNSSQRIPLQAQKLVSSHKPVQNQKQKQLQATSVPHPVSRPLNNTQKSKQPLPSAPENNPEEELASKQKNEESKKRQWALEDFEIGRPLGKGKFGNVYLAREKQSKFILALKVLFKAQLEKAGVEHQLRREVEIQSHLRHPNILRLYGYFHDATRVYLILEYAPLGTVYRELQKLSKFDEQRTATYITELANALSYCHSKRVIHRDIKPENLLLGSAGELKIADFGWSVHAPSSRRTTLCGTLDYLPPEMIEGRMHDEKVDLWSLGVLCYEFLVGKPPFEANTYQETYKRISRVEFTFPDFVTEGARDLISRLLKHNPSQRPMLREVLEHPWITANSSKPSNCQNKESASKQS
Method: The inhibitory effect of the compounds toward the kinase Aurora2 is determined via a radioactivity scintillation test using nickel chelate.
A complete recombinant Aurora2 enzyme, the N-terminal of which was labeled with histidine, was expressed in E. coli and purified to a quality close to homogeneity.
The C-terminal fragment (Q1687-H2101) of an NuMA (Nuclear protein which is associated with the Mitotic Apparatus) expressed in E. coli, and the N-terminal end of which was labeled with histidine, was purified by nickel chelate chromatography and used as substrate in the Aurora2 kinase test.
To determine the kinase activity, the substrate NuMA is equilibrated by chromatography on a PD10 Pharmacia column, in a buffer (50 mM Tris-HCl, pH 7.5, 50 mM NaCl, 10 mM MgCl2) supplemented with 10% (v/v) of glycerol and 0.05% (w/v) of NP40.
The kinase activity of Aurora2 is measured by scintillation with nickel chelate (New England Nuclear, SMP107 model). Each well contains 100 μl of the following solution: 0.02 μM of Aurora2; 0.5 μM of NuMA substrate; 1 μM of ATP supplemented with 0.5 μCi of ATP-[^33P]. The solutions are incubated for 30 minutes at 37° C. The test buffer is then removed and the wells are rinsed twice with 300 μl of kinase buffer. The radioactivity is measured in each well using a Packard Model Top Count NXT machine.
The background noise is deduced by measuring radioactivity measured in duplicate in wells containing the radioactive ATP alone containing buffered kinase treated in the same manner as for the other samples.
The activity of the control is determined by measuring in duplicate the radioactivity in the complete test mixture (ATP, Aurora2 and substrate NuMA), in the absence of test compound.
The inhibition of the activity of Aurora2 with a compound of the invention is expressed as a percentage of inhibition of the control activity in the absence of test compound. Staurosporin is added to each plate as inhibition control.
The activity of the products was determined by measuring the inhibition of Aurora2 activity.

human Tie2 = molecular target: T3, human Tie2 (Homo sapiens, UniProt Q02763); assay: Test of phosphorylation of PLC with Tie2 (GST-Tie2); format: biochemical
T3 construct: amino acids of the intracellular domain 776-1124; made in house; host or cells: baculovirus expression (pFastBacGT vector)
T3 sequence (Q02763 776-1124): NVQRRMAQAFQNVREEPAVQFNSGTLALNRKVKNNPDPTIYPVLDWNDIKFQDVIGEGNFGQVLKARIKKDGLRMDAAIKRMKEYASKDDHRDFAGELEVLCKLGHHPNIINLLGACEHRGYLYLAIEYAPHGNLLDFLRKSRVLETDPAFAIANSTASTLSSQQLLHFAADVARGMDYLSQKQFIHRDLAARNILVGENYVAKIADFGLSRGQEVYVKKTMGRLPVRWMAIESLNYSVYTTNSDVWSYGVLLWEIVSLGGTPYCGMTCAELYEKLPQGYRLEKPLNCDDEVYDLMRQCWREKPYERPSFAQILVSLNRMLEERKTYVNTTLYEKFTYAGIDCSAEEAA
Method: The coding sequence of human Tie2 corresponding to the amino acids of the intracellular domain 776-1124 was generated by PCR using the cDNA isolated from a human placenta as a model. This sequence was introduced into a pFastBacGT baculovirus expression vector in the form of a GST fusion protein.
The inhibitory effect of the molecules is determined in a test of phosphorylation of PLC with Tie2 in the presence of GST-Tie2 purified to about 80% homogeneity. The substrate is composed of the SH2-SH3 fragments of PLC expressed in the form of a GST fusion protein.
The kinase activity of Tie2 is measured in a MOPS 20 mM pH 7.2 buffer, containing 10 mM MgCl2, 10 mM MnCl2, 1 mM DTT, 10 mM of glycerophosphate. In a 96-well FlashPlate plate maintained on ice, a reaction mixture is deposited, composed of 70 μL of kinase buffer containing 100 ng of enzyme GST-Tie2 per well. Next, 10 μL of the test molecule diluted in DMSO to a maximum concentration of 10% are added. For a given concentration, each measurement is performed four times. The reaction is initiated by adding 20 μL of solution containing 2 μg of GST-PLC, 2 μm of cold ATP and 1 μCi of ^33P [ATP]. […] The radioactivity is measured on a MicroBeta1450 Wallac.
The inhibition of the Tie2 activity is calculated and expressed as a percentage of inhibition relative to the control activity determined in the absence of compound.

IC50 (CDK2/cycline E)	melting point	IC50 (Aurora2)	IC50 (human Tie2)	SMILES
< 100 nM	171 °C	< 50 nM	–	O=C(NOc1ccccc1)c1cc2c(-c3cc4ccccc4[nH]3)n[nH]c2s1 [Example 1, 3-(1H-indol-2-yl)-1H-thieno[2,3-c]pyrazole-5-(N-phenoxycarboxamide)]
522 nM	142 °C	< 50 nM	–	O=C(NOc1ccccc1)c1cc2c(/C=C/c3ccccc3)n[nH]c2s1 [Example 2]
< 500 nM	–	< 50 nM	< 500 nM	O=C(Nc1n[nH]c2sc(C(=O)NOc3ccccc3)cc12)c1cccs1 [Example 3, 3-[(thiophene-2-carbonyl)amino]-1H-thieno[2,3-c]pyrazole-5-(N-phenoxycarboxamide)hydrochloride]
